Reference: ChEMBL document CHEMBL3045112, “In vitro antimicrobial assessment of coumarin-based s-triazinyl piperazines” (2012)
In brackets after ≈: the same amount, converted by molar mass.

Columns and labels:
[1] = system: Candida albicans; test: Antifungal activity against Candida albicans at 100 ug/disk after 48 hr by disk diffusion test; type: functional; conditions: read-out: IZ
[2] = system: Candida albicans; test: Antifungal activity against Candida albicans after 48 hr by agar plate method; type: functional
[3] = system: Aspergillus niger; test: Antifungal activity against Aspergillus niger at 100 ug/disk after 48 hr by disk diffusion test; type: functional; conditions: read-out: IZ
[4] = system: Aspergillus niger; test: Antifungal activity against Aspergillus niger after 48 hr by agar plate method; type: functional
[5] = system: Staphylococcus aureus; test: Antibacterial activity against Staphylococcus aureus at 100 ug/disc after 24 hr by disk diffusion test; conditions: read-out: IZ
[6] = system: Bacillus subtilis; test: Antibacterial activity against Bacillus subtilis at 100 ug/disk after 24 hr by disk diffusion test; conditions: read-out: IZ
[7] = system: Pseudomonas aeruginosa; test: Antibacterial activity against Pseudomonas aeruginosa at 100 ug/disk after 24 hr by disk diffusion test; conditions: read-out: IZ
[8] = system: Pseudomonas aeruginosa; test: Antibacterial activity against Pseudomonas aeruginosa after 24 hr by agar plate method; type: functional
[9] = system: Staphylococcus aureus; test: Antibacterial activity against Staphylococcus aureus after 24 hr by agar plate method; type: functional
[10] = system: Escherichia coli; test: Antibacterial activity against Escherichia coli at 100 ug/disk after 24 hr by disk diffusion test; conditions: read-out: IZ
[11] = system: Escherichia coli; test: Antibacterial activity against Escherichia coli after 24 hr by agar plate method; type: functional
[12] = system: Bacillus subtilis; test: Antibacterial activity against Bacillus subtilis after 24 hr by agar plate method; type: functional

`CC(=O)N1CCN(c2ccc(OCC3COC(Cn4ccnc4)(c4ccc(Cl)cc4Cl)O3)cc2)CC1` (configuration not stated) [KETOCONAZOLE] gave a zone of inhibition at 100 µg/disc [1] of 33 mm, an MIC [2] of 3.12 µg/mL (≈ 5.88 µM) and a zone of inhibition at 100 µg/disc [3] of 30 mm. For the same compound, the MIC [4] was 6.25 µg/mL (≈ 11.8 µM).
For `O=C(O)c1cn(C2CC2)c2cc(N3CCNCC3)c(F)cc2c1=O` [CIPROFLOXACIN], the zone of inhibition at 100 µg/disc [5] was 29 mm, the zone of inhibition at 100 µg/disc [6] was 29 mm and the zone of inhibition at 100 µg/disc [7] was 33 mm. For the same compound, the MIC [8] was 3.12 µg/mL (≈ 9.43 µM), the MIC [9] was 3.12 µg/mL (≈ 9.43 µM) and the zone of inhibition at 100 µg/disc [10] was 32 mm. For the same compound, the MIC [11] was 3.12 µg/mL (≈ 9.43 µM) and the MIC [12] was 3.12 µg/mL (≈ 9.43 µM).
